{"source": "paper PMC5783810", "about": "(Saudi Pharmaceutical Journal : SPJ, 2017)", "data": [{"assay": "Water solubility", "details": "relative to trolox (0.1 g/L)", "values": [{"molecule": "6-Hydroxy-2,5,7,8-tetramethylchromane-2-carboxylate 1-oxyl-2,2,5,5-tetramethylpirrolidin-4-ammonium [2h]", "fold increase in water solubility relative to trolox": "20 fold"}, {"molecule": "6-Hydroxy-2,5,7,8-tetramethylchromane-2-carboxylate 1-oxyl-2,2,6,6-tetramethylpiperidine-4-ammonium [2g]", "fold increase in water solubility relative to trolox": "10 fold"}, {"molecule": "6-Hydroxy-2,5,7,8-tetramethylchromane-2-carboxylate, 1-(1H-indol-3-yl)-N,N-dimetilmetanammonium [2q]", "fold increase in water solubility relative to trolox": "20–590 fold"}, {"molecule": "6-Hydroxy-2,5,7,8-tetramethylchromane-2-carboxylate, 3-(3,4-dimethoxybenzoate)-8-ammoniybicyclo[3.2.1]octane [2m]", "fold increase in water solubility relative to trolox": "20–590 fold"}, {"molecule": "6-Hydroxy-2,5,7,8-tetramethylchromane-2-carboxylate, 4-(N-acetylantranoiloxy)-8,9-dihydroxy-1α,14α,16β-trimethoxy-N-ethylammonium-18-norakonan [2p]", "fold increase in water solubility relative to trolox": "20–590 fold"}, {"molecule": "Cc1c(C)c2c(c(C)c1O)CCC(C)(C(=O)O)O2.O=c1cccc2n1CC1CNCC2C1", "note": "(stereo not drawn) [2l, 6-Hydroxy-2,5,7,8-tetramethylchromane-2-carboxylate, 1,2,3,4,5,6-hexahydro-1,5-methano-8H-pyridinium-[1,2-α][1,5]-diazotsin-8-one]", "fold increase in water solubility relative to trolox": "20–590 fold"}]}, {"assay": "Water solubility", "details": "water, thermodynamic from solid", "units": {"solubility at 10 min": "µg/mL"}, "values": [{"molecule": "CCN(CC)CC.Cc1c(C)c2c(c(C)c1O)CCC(C)(C(=O)O)O2", "note": "(centres unmarked) [2n, 6-Hydroxy-2,5,7,8-tetramethylchromane-2-carboxylate, triethylammonium]", "solubility at 10 min": 3000}, {"molecule": "Cc1c(C)c2c(c(C)c1O)CCC(C)(C(=O)O)O2", "note": "(centres unmarked) [compound 1, 6-hydroxy-2,5,7,8-tetra methyl chromane-2-carboxylic acid, reference compound]", "solubility at 10 min": 100}]}]}
